System: NHBE cells
Experiment: Biolog metabolic array: substrate use by NHBE cells with or without CA09 infection
Assay type: cell-based, human
Conditions: for Substrate use, 590 nm absorbance normalized to zero hour, 0 hr: Biolog PMM2, 0 hr; for Substrate use, 590 nm absorbance normalized to zero hour, 1 hr: Biolog PMM2, 1 hr; for Substrate use, 590 nm absorbance normalized to zero hour, 5 hr: Biolog PMM2, 5 hr; for Substrate use, 590 nm absorbance normalized to zero hour, 7 hr: Biolog PMM2, 7 hr
[1] = Control (uninfected) NHBE cells
[2] = Virus (CA09-infected NHBE cells, MOI 1)
[3] = Virus: CA09-infected NHBE cells, MOI 1, Biolog PMM2
[4] = Virus (CA09-infected, MOI 1) NHBE cells
[5] = Virus (CA09, MOI 1) infected NHBE cells

## OC[C@@H](O)[C@@H](O[C@H]1O[C@H](CO)[C@@H](O)[C@H](O)[C@H]1O)[C@H](O)[C@@H](O)CO [Maltitol]
[1]
  590 nm absorbance normalized to zero hour (substrate use), 0 hr: 1.00
  590 nm absorbance normalized to zero hour (substrate use), 1 hr: 1.76
  590 nm absorbance normalized to zero hour (substrate use), 2 hr: 2.36
  590 nm absorbance normalized to zero hour (substrate use), 3 hr: 2.82
  590 nm absorbance normalized to zero hour (substrate use), 4 hr: 3.07
  590 nm absorbance normalized to zero hour (substrate use), 6 hr: 3.52
  590 nm absorbance normalized to zero hour (substrate use), 8 hr: 4.77
  590 nm absorbance normalized to zero hour (substrate use), 9 hr: 5.77
  590 nm absorbance normalized to zero hour (substrate use), 10 hr: 5.24
  590 nm absorbance normalized to zero hour (substrate use), 11 hr: 5.98
  Substrate use, 590 nm absorbance normalized to zero hour, 0 hr: 1.00
  Substrate use, 590 nm absorbance normalized to zero hour, 1 hr: 1.76
  Substrate use, 590 nm absorbance normalized to zero hour, 5 hr: 3.80
  Substrate use, 590 nm absorbance normalized to zero hour, 7 hr: 4.49
[2]
  590 nm absorbance normalized to zero hour (substrate use), 0 hr: 1.00
  590 nm absorbance normalized to zero hour (substrate use), 1 hr: 1.05
  590 nm absorbance normalized to zero hour (substrate use), 2 hr: 1.03
  590 nm absorbance normalized to zero hour (substrate use), 3 hr: 1.37
  590 nm absorbance normalized to zero hour (substrate use), 4 hr: 0.98
  590 nm absorbance normalized to zero hour (substrate use), 5 hr: 0.88
  590 nm absorbance normalized to zero hour (substrate use), 6 hr: 0.89
  590 nm absorbance normalized to zero hour (substrate use), 7 hr: 0.92
  590 nm absorbance normalized to zero hour (substrate use), 8 hr: 0.96
  590 nm absorbance normalized to zero hour (substrate use), 9 hr: 1.01
  590 nm absorbance normalized to zero hour (substrate use), 10 hr: 1.08
  590 nm absorbance normalized to zero hour (substrate use), 11 hr: 1.16
[3]
  590 nm absorbance normalized to zero hour (substrate use), 0 hr: 1.00
  590 nm absorbance normalized to zero hour (substrate use), 1 hr: 1.05
  590 nm absorbance normalized to zero hour (substrate use), 2 hr: 1.03
  590 nm absorbance normalized to zero hour (substrate use), 3 hr: 1.37
  590 nm absorbance normalized to zero hour (substrate use), 4 hr: 0.98
  590 nm absorbance normalized to zero hour (substrate use), 5 hr: 0.88
  590 nm absorbance normalized to zero hour (substrate use), 6 hr: 0.89
  590 nm absorbance normalized to zero hour (substrate use), 7 hr: 0.92
  590 nm absorbance normalized to zero hour (substrate use), 8 hr: 0.96
  590 nm absorbance normalized to zero hour (substrate use), 9 hr: 1.01
  590 nm absorbance normalized to zero hour (substrate use), 10 hr: 1.08
  590 nm absorbance normalized to zero hour (substrate use), 11 hr: 1.16

## OCC1OC(OC2C(CO)OC(OC3C(CO)OC(O)C(O)C3O)C(O)C2O)C(O)C(O)C1O (centres unmarked) [Malto-triose]
[1]
  590 nm absorbance normalized to zero hour (substrate use), 0 hr: 1.00
  590 nm absorbance normalized to zero hour (substrate use), 1 hr: 2.27
  590 nm absorbance normalized to zero hour (substrate use), 2 hr: 3.36
  590 nm absorbance normalized to zero hour (substrate use), 3 hr: 4.16
  590 nm absorbance normalized to zero hour (substrate use), 4 hr: 4.58
  590 nm absorbance normalized to zero hour (substrate use), 6 hr: 5.62
  590 nm absorbance normalized to zero hour (substrate use), 8 hr: 7.97
  590 nm absorbance normalized to zero hour (substrate use), 9 hr: 7.32
  590 nm absorbance normalized to zero hour (substrate use), 10 hr: 6.88
  590 nm absorbance normalized to zero hour (substrate use), 11 hr: 8.46
  Substrate use, 590 nm absorbance normalized to zero hour, 0 hr: 1.00
  Substrate use, 590 nm absorbance normalized to zero hour, 1 hr: 2.27
  Substrate use, 590 nm absorbance normalized to zero hour, 5 hr: 6.09
  Substrate use, 590 nm absorbance normalized to zero hour, 7 hr: 7.39
[4]
  590 nm absorbance normalized to zero hour (substrate use), 0 hr: 1.00
  590 nm absorbance normalized to zero hour (substrate use), 1 hr: 2.01
  590 nm absorbance normalized to zero hour (substrate use), 2 hr: 3.05
  590 nm absorbance normalized to zero hour (substrate use), 3 hr: 3.70
  590 nm absorbance normalized to zero hour (substrate use), 4 hr: 4.08
  590 nm absorbance normalized to zero hour (substrate use), 5 hr: 5.20
  590 nm absorbance normalized to zero hour (substrate use), 6 hr: 5.81
  590 nm absorbance normalized to zero hour (substrate use), 7 hr: 6.29
  590 nm absorbance normalized to zero hour (substrate use), 8 hr: 6.78
  590 nm absorbance normalized to zero hour (substrate use), 9 hr: 7.44
  590 nm absorbance normalized to zero hour (substrate use), 10 hr: 6.04
  590 nm absorbance normalized to zero hour (substrate use), 11 hr: 6.50
[3]
  590 nm absorbance normalized to zero hour (substrate use), 0 hr: 1.00
  590 nm absorbance normalized to zero hour (substrate use), 1 hr: 2.01
  590 nm absorbance normalized to zero hour (substrate use), 2 hr: 3.05
  590 nm absorbance normalized to zero hour (substrate use), 3 hr: 3.70
  590 nm absorbance normalized to zero hour (substrate use), 4 hr: 4.08
  590 nm absorbance normalized to zero hour (substrate use), 5 hr: 5.20
  590 nm absorbance normalized to zero hour (substrate use), 6 hr: 5.81
  590 nm absorbance normalized to zero hour (substrate use), 7 hr: 6.29
  590 nm absorbance normalized to zero hour (substrate use), 8 hr: 6.78
  590 nm absorbance normalized to zero hour (substrate use), 9 hr: 7.44
  590 nm absorbance normalized to zero hour (substrate use), 10 hr: 6.04
  590 nm absorbance normalized to zero hour (substrate use), 11 hr: 6.50

## OC[C@H]1O[C@H](O[C@H]2[C@H](O)[C@@H](O)[C@H](O)O[C@@H]2CO)[C@H](O)[C@@H](O)[C@@H]1O [Maltose]
[1]
  590 nm absorbance normalized to zero hour (substrate use), 1 hr: 1.07
  590 nm absorbance normalized to zero hour (substrate use), 2 hr: 1.04
  590 nm absorbance normalized to zero hour (substrate use), 3 hr: 1.27
  590 nm absorbance normalized to zero hour (substrate use), 4 hr: 1.22
  590 nm absorbance normalized to zero hour (substrate use), 6 hr: 1.72
  590 nm absorbance normalized to zero hour (substrate use), 8 hr: 1.68
  590 nm absorbance normalized to zero hour (substrate use), 9 hr: 1.97
  590 nm absorbance normalized to zero hour (substrate use), 10 hr: 1.93
  590 nm absorbance normalized to zero hour (substrate use), 11 hr: 2.37
  Substrate use, 590 nm absorbance normalized to zero hour, 1 hr: 1.07
  Substrate use, 590 nm absorbance normalized to zero hour, 5 hr: 1.53
  Substrate use, 590 nm absorbance normalized to zero hour, 7 hr: 1.53
[5]
  Substrate use, 590 nm absorbance normalized to zero hour, 1 hr: 2.29
  Substrate use, 590 nm absorbance normalized to zero hour, 5 hr: 5.22
  Substrate use, 590 nm absorbance normalized to zero hour, 7 hr: 6.41
[4]
  590 nm absorbance normalized to zero hour (substrate use), 1 hr: 2.29
  590 nm absorbance normalized to zero hour (substrate use), 2 hr: 3.23
  590 nm absorbance normalized to zero hour (substrate use), 3 hr: 3.88
  590 nm absorbance normalized to zero hour (substrate use), 4 hr: 4.21
  590 nm absorbance normalized to zero hour (substrate use), 6 hr: 5.86
  590 nm absorbance normalized to zero hour (substrate use), 8 hr: 7.01
  590 nm absorbance normalized to zero hour (substrate use), 9 hr: 8.07
  590 nm absorbance normalized to zero hour (substrate use), 10 hr: 8.77
  590 nm absorbance normalized to zero hour (substrate use), 11 hr: 8.43

## O=C(O)[C@H](O)[C@@H](O)[C@H](O)[C@H](O)CO[C@H]1O[C@H](CO)[C@H](O)[C@H](O)[C@H]1O [Melibionic Acid]
[1]
  590 nm absorbance normalized to zero hour (substrate use), 0 hr: 1.00
  590 nm absorbance normalized to zero hour (substrate use), 1 hr: 0.20
  590 nm absorbance normalized to zero hour (substrate use), 2 hr: 0.76
  590 nm absorbance normalized to zero hour (substrate use), 3 hr: 0.58
  590 nm absorbance normalized to zero hour (substrate use), 4 hr: 0.66
  590 nm absorbance normalized to zero hour (substrate use), 6 hr: 0.40
  590 nm absorbance normalized to zero hour (substrate use), 8 hr: 0.51
  590 nm absorbance normalized to zero hour (substrate use), 9 hr: 0.53
  590 nm absorbance normalized to zero hour (substrate use), 10 hr: 0.57
  590 nm absorbance normalized to zero hour (substrate use), 11 hr: 0.60
  Substrate use, 590 nm absorbance normalized to zero hour, 0 hr: 1.00
  Substrate use, 590 nm absorbance normalized to zero hour, 1 hr: 0.20
  Substrate use, 590 nm absorbance normalized to zero hour, 5 hr: 0.48
  Substrate use, 590 nm absorbance normalized to zero hour, 7 hr: 0.47
[5]
  Substrate use, 590 nm absorbance normalized to zero hour, 0 hr: 1.00
  Substrate use, 590 nm absorbance normalized to zero hour, 1 hr: 3.52
  Substrate use, 590 nm absorbance normalized to zero hour, 5 hr: 3.34
  Substrate use, 590 nm absorbance normalized to zero hour, 7 hr: 3.05
[4]
  590 nm absorbance normalized to zero hour (substrate use), 0 hr: 1.00
  590 nm absorbance normalized to zero hour (substrate use), 1 hr: 3.52
  590 nm absorbance normalized to zero hour (substrate use), 2 hr: 3.58
  590 nm absorbance normalized to zero hour (substrate use), 3 hr: 3.59
  590 nm absorbance normalized to zero hour (substrate use), 4 hr: 3.66
  590 nm absorbance normalized to zero hour (substrate use), 6 hr: 3.22
  590 nm absorbance normalized to zero hour (substrate use), 8 hr: 2.89
  590 nm absorbance normalized to zero hour (substrate use), 9 hr: 2.67
  590 nm absorbance normalized to zero hour (substrate use), 10 hr: 1.66
  590 nm absorbance normalized to zero hour (substrate use), 11 hr: 2.18

From patent publication US11083725B2 (priority 2014, dated 2021)
